Reference: US9643971B2 (GALLEON PHARMACEUTICALS, INC., priority 2013, dated 2017)
Entries after “also recorded” stand apart in the source; their conditions may differ. Structures can show the parent of a compound that is named as a salt. Where two headings read alike, the source gives them in different places.

Columns and labels:
[1] = system: rats chronically treated with morphine; assay: Apnea, ventilation and sleep structure in rats chronically treated with morphine (whole-body plethysmography); type: in vivo, Zucker rats; conditions: oral gavage; for apnea frequency / number of apneas per hr expressed as a percent change from baseline (pre-drug): versus treatment with a vehicle
Text: The objective of this study was to quantify the effects of selected compounds of this invention on apnea, ventilation and sleep structure in a rat model. The study consisted of two treatment conditions: (1) chronic morphine and test compound administered orally, and (2) chronic morphine and oral vehicle.
Adult male lean Zucker rats were anesthetized for electroencephalogram (EEG) and electromyogram (EMG) telemeter implantation. At least one week was permitted post-surgery before animals were used further. Morphine sulfate was added to the drinking water of singly housed rats beginning with 0.1 mg/ml morphine and increasing the concentration in increments, so that a final concentration of 0.6 mg/ml was achieved within 2 weeks. All respiratory measurements were made while animals were unrestrained in whole-body plethysmography chambers to permit animals to sleep and move freely. To avoid eliciting withdrawal, morphine water was continuously available during each plethysmography experiment. Minute volume and the number of central sleep apneas (CSA) were measured during all treatment conditions. A period of at least 1 to 1.5 h was permitted for animals to acclimate to the chamber before data collection began. The biopotential telemeters and their receivers were placed directly under the plethysmographic chambers and were used to continuously to capture EEG, EMG, and body temperature signals. Only data collected between the hours of 10 am to 4:30 pm were used in the final analysis to control for the effects of circadian rhythm on breathing.
Test compound in vehicle or an equivalent volume of vehicle was administered via an oral gavage tube at 12 pm. Data collected between 10 am and 12 pm represented baseline (pre-drug) conditions. Data collected between […] represented post-drug conditions. Analyses of the EEG and EMG waveforms for the purpose of staging sleep-wake behavior in rats as awake, NREM sleep, and REM sleep were based on previous sleep studies involving rodents. Central apneas were defined as a respiratory cycle period that was more than or equal to twice the average cycle period during baseline recordings. Percent time in each sleep-wake state, minute volume, and central sleep apnea counts were compared between treatment groups using a two-way ANOVA (factors: drug treatment and time). Breathing data during wakefulness was not analyzed because movement prevents measurement of accurate volumes when using whole-body plethysmography. When differences were detected with ANOVA, Student-Neuman-Keuls post hoc tests were run for all main effects and interactions. Differences were considered significant when p<0.05. Values are expressed as means±SE.

anesthetized rat = assay: Anesthetized rat spirometry screening assay; type: in vivo
Method in brief: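 Rats under urethane (1.5 g/kg i.v., after isoflurane induction) with femoral and tracheal cannulas; compounds given as i.v. bolus at 0.1 and 0.3 mg/kg with formulation-matched vehicle. RR, VT and minute volume from pneumotachometer airflow, in 30 s bins over 6 min post-dose; arterial blood gases taken pre- and 6 min post-dose.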

[2] = In vitro metabolic stability in rat liver microsomes (RLM)
[3] = In vitro metabolic stability in human liver microsomes (HLM); conditions: for half-life at 5 μM: both, human; for HLM T½: human liver microsomes, 5 μM compound, NADPH, 37° C.
[4] = rat, microsomes
in vitro = conditions: male, rat, microsomes
physchem = conditions: organic solvent or mixture, thermodynamic from solid
Description: A 3 mL vial with a screw cap was charged with 50 mg of the solid salt and 1 mL of a solvent at room temperature. The mixture was heated if necessary to achieve a clear solution, in some examples producing a mixture comprising a clear portion and a melt or incompletely dissolved crystalline material. The hot mixture was cooled to room temperature. […] Solvents evaluated include acetonitrile, methyl ethyl ketone, methyl isobutyl ketone, ethyl acetate, isopropyl acetate, water, heptane, methyl-tert-butyl ether, cyclohexane, toluene, methanol, ethanol, n-propanol, isopropanol, n-butanol, 2-butanol, isoamyl alcohol, and tetrahydrofuran.

[5] = 2 minute AUC of minute volume increase vs. comparator N-[2,6-di-(n-propylamino)-[1,3]pyrimidin-4-yl]-N,O-dimethyl-hydroxylamine
[6] = peak minute ventilation increase, urethane-anesthetized rat, i.v. bolus, screening doses 0.1 and 0.3 mg/kg

C=CCNc1nc(NC)nc2c(NCC=C)nc(NC)nc12.Cl [Compound 145a, N^4,N^8-Diallyl-N^2,N^6-dimethyl-pyrimido[5,4-d]pyrimidine-2,4,6,8-tetraamine hydrochloride]
apnea frequency ([1]; hydrochloride): reduced; also recorded: decreased | number of apneas per hr expressed as a percent change from baseline (pre-drug) ([1]; hydrochloride): reduced; also recorded: decreased | minute volume compared to a vehicle-treated group ([1]; hydrochloride): did not cause an increase; also recorded: do not cause increases | number of apneas per hr versus vehicle ([1]; hydrochloride): reduced; also recorded: decreased | ventilation per unit time compared to vehicle ([1]; hydrochloride): did not cause an increase; also recorded: do not cause an increase | AUC MV Inc (2 min) (ratio vs. std*) (anesthetized rat; [5]): 0.88 ratio vs. std

CCCNc1nc(NCCC(F)(F)F)nc2c(NCCC)nc(NC)nc12 [Compound 39a, hydrochloride]
half-life at 5 μM ([2]; male, rat, microsomes): 2.57 h | half-life at 5 μM ([3]; microsomes): 3.97 h | AUC MV Inc (2 min) (ratio vs. std*) (anesthetized rat; [5]): 0.71 ratio vs. std

CCCNc1nc(N2CCOCC2)nc2c(NCCC)nc(NC)nc12 [Compound 41a, N^2-Methyl-N^4N^8-di-n-propyl-6-(morpholin-4-yl)-pyrimido[5,4-d]pyrimidine-2,4,8-triamine]
RLM T½ ([2]; rat liver microsomes, 5 μM compound, NADPH, 37° C.): 1.67 h | HLM T½ [3]: 3.12 h | AUC MV Inc (2 min) (ratio vs. std*) (anesthetized rat; rat, in vivo): 0.36 ratio vs. std | VE Peak (% Inc.) (anesthetized rat; rat, in vivo): 57 % Inc.

CCCNc1nc(NC)nc2c(NCCC)ncnc12.Cl [Compound 22a, N^2-Methyl-N^4,N^8-di-n-propylpyrimido[5,4-d]primidine-2,4,8-triamine hydrochloride]
RLM T½ [4]: 0.15 h | HLM T½ [3]: 0.35 h | AUC MV Inc (2 min) (ratio vs. std*) (anesthetized rat; [5]): 0.01 ratio vs. std | VE Peak (% Inc.) (anesthetized rat; [6]): 9 % Inc.

CCCNc1nc(NCC)nc2c(NCCC)nc(NCC)nc12 [Compound 137a, N^2,N^6-Diethyl-N^4,N^8-di-n-propyl-pyrimido[5,4-d]pyrimidine-2,4,6,8-tetraamine]
half-life at 5 μM (in vitro): 1.62 h | minute volume compared to a vehicle-treated group [1]: do not cause increases | number of apneas per hr versus vehicle [1]: reduced; also recorded: decreased | ventilation per unit time compared to vehicle [1]: did not cause an increase; also recorded: do not cause an increase | minute volume compared to a vehicle-treated group ([1]; higher dose): caused an increase | minute volume compared to a vehicle-treated group ([1]; low dose): did not cause an increase | apnea frequency [1]: reduced; also recorded: decreased | number of apneas per hr expressed as a percent change from baseline (pre-drug) [1]: reduced; also recorded: decreased | half-life at 5 μM ([3]; liver microsomes): 3.78 h | AUC MV Inc (2 min) (ratio vs. std*) (anesthetized rat; [5]): 0.88 ratio vs. std

CNc1nc(NCC2CC2)nc2c(NC)nc(NCC3CC3)nc12.Cl [Compound 85a, N^2,N^6-Bis-cyclopropylmethyl-N^4,N^8-dimethyl-pyrimido[5,4-d]pyrimidine-2,4,6,8-tetraamine hydrochloride]
half-life at 5 μM (in vitro): 6.43 h | apnea frequency ([1]; hydrochloride): reduced; also recorded: decreased | number of apneas per hr expressed as a percent change from baseline (pre-drug) ([1]; hydrochloride): reduced; also recorded: decreased | minute volume compared to a vehicle-treated group ([1]; hydrochloride): did not cause an increase; also recorded: do not cause increases | number of apneas per hr versus vehicle ([1]; hydrochloride): reduced; also recorded: decreased | ventilation per unit time compared to vehicle ([1]; hydrochloride): did not cause an increase; also recorded: do not cause an increase | melting point: 264 to 265 °C | solubility (physchem; Reflux): > 50 mg/mL | solubility (physchem; r.t.): < 50 mg/mL | half-life at 5 μM ([3]; liver microsomes): 6.48 h | AUC MV Inc (2 min) (ratio vs. std*) (anesthetized rat; [5]): 0.51 ratio vs. std

C#CCNc1nc(N(C)OC)nc2c(NCCC)nc(N(C)OC)nc12.Cl [Compound 15a, N^2,N^6-Bis(N-methoxy(N-methyl)amino)-N^4-n-propylamino-N^8-prop-2-ynylamino-pyrimido[5,4-d]pyrimidine hydrochloride]
RLM T½ [4]: 0.567 h | HLM T½ [3]: 1.52 h | AUC MV Inc (2 min) (ratio vs. std*) (anesthetized rat; [5]): 0.00 ratio vs. std | VE Peak (% Inc.) (anesthetized rat; [6]): 6 % Inc.

CNc1nc(NCC2CC2)nc2c(NC)nc(NCC3CC3)nc12 [Compound 84, N^2,N^6-Bis-cyclopropylmethyl-N^4,N^8-dimethyl-pyrimido[5,4-d]pyrimidine-2,4,6,8-tetraamine]
melting point: 264 to 268 °C

CCCNc1nc(NCCC)c2nc(NCCC)nc(NCCC)c2n1.Cl [Compound 6a, N^2,N^4,N^6,N^8-Tetra-n-propyl-pyrimido[5,4-d]pyrimidine-2,4,6,8-tetraamine hydrochloride]
half-life at 5 μM (in vitro): 6.93 h | melting point: 208 to 211 °C | half-life at 5 μM ([3]; liver microsomes): > 8.33 h | AUC MV Inc (2 min) (ratio vs. std*) (anesthetized rat; [5]): 0.54 ratio vs. std

CCCNc1nc(NC2CC2)nc2c(NCCC)nc(NC3CC3)nc12 [Compound 138, N^2,N^6-Dicyclopropyl-N^4,N^8-di-n-propyl-pyrimido[5,4-d]pyrimidine-2,4,6,8-tetraamine]
half-life at 5 μM (in vitro): 5.52 h | melting point: 210 to 212 °C | half-life at 5 μM ([3]; liver microsomes): > 8.33 h | AUC MV Inc (2 min) (ratio vs. std*) (anesthetized rat; [5]): 0.53 ratio vs. std

CCCNc1nc(NC)c2nc(NCCC)nc(NC)c2n1.Cl [Compound 27a, N^4,N^8-Dimethyl-N^2,N^6-di-n-propyl-pyrimido[5,4-d]pyrimidine-2,4,6,8-tetraamine hydrochloride]
half-life at 5 μM (in vitro): 2.27 h | apnea frequency ([1]; hydrochloride): reduced; also recorded: decreased | number of apneas per hr expressed as a percent change from baseline (pre-drug) ([1]; hydrochloride): reduced; also recorded: decreased | minute volume compared to a vehicle-treated group ([1]; hydrochloride): did not cause an increase; also recorded: do not cause increases | number of apneas per hr versus vehicle ([1]; hydrochloride): reduced; also recorded: decreased | ventilation per unit time compared to vehicle ([1]; hydrochloride): did not cause an increase; also recorded: do not cause an increase | half-life at 5 μM ([3]; liver microsomes): 2.12 h | AUC MV Inc (2 min) (ratio vs. std*) (anesthetized rat; [5]): 1.22 ratio vs. std | duration of increase in minute ventilation (anesthetized rat; anesthetized rat, i.v. bolus): approximately 2 minutes | effect on blood pressure (anesthetized rat; anesthetized rat, i.v. bolus): minimal effects | effect on minute ventilation above baseline values (anesthetized rat; anesthetized rat, i.v. bolus): increase | effect on pulse rate (anesthetized rat; anesthetized rat, i.v. bolus): minimal effects | effect on respiratory rate (anesthetized rat; anesthetized rat, i.v. bolus): stimulatory effects | dose dependence of effect on minute volume (anesthetized rat; based on a two-minute average): dose-dependent effect | effect compared to a reference compound as measured by area-under-curve (anesthetized rat; minute volume, two-minute average): greater effect

CCCNc1nc(NC)c2nc(C(=O)O)nc(NC)c2n1 [Compound 108, 4,8-Bis-methylamino-6-n-propylamino-pyrimido[5,4-d]pyrimidine-2-carboxylic acid]
melting point: 218 to 220 °C | AUC MV Inc (2 min) (ratio vs. std*) (anesthetized rat; [5]): 0.05 ratio vs. std
